According to patent publication US12275731B2, “Azaindole inhibitors of wild-type and mutant forms of LRRK2” (DANA-FARBER CANCER INSTITUTE, INC., priority 2018, dated 2025):

Columns and labels:
Experiment in all cases: KinomeScan profiling
Type in all cases: binding
MEK3 = target: T1, MEK3 (Homo sapiens, UniProt P46734); details: MEK3, 1 μM; read-out: % control
T1 sequence (P46734 1-347): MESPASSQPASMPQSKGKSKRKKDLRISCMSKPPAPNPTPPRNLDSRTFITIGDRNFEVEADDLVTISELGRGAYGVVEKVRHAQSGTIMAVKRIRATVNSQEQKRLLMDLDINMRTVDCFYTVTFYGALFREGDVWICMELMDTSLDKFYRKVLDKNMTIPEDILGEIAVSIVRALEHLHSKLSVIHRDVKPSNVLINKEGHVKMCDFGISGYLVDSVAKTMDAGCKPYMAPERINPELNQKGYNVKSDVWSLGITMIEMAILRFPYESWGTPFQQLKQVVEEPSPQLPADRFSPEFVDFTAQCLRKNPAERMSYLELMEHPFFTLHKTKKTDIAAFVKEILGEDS
Procedure, shortened: (§1)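 Single-point competition binding screen: 1 μM, DMSO, 468 kinases. Results reported as % control from RLU, normalised to DMSO and positive-control wells. Activity threshold: <35% control.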

BRSK1 = target: T2, BRSK1 (Homo sapiens, UniProt Q8TDC3); details: BRSK1, 1 μM; read-out: % control
T2 sequence (Q8TDC3 1-778): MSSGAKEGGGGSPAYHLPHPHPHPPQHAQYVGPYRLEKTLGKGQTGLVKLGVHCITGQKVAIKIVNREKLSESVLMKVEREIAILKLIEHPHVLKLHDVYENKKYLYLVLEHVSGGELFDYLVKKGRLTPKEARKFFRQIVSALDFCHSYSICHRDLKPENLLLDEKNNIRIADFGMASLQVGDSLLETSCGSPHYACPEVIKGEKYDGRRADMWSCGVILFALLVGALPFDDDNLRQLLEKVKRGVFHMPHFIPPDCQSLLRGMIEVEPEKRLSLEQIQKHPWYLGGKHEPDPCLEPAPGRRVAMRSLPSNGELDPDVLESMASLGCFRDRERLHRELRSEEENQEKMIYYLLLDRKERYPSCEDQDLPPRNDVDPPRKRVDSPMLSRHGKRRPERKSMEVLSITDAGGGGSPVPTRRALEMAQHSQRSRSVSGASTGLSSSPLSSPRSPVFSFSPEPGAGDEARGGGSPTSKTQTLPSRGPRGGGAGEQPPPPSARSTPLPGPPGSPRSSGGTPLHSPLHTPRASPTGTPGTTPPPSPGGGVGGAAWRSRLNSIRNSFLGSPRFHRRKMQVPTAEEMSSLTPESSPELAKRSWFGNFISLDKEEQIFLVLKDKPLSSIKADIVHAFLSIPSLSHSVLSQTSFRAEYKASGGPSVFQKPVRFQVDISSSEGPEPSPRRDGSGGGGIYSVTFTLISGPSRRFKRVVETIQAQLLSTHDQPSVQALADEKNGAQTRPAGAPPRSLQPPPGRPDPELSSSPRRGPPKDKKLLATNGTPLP
Procedure, shortened: as §1

[1] = target: EGFR(L747-S752del, P753S) (Homo sapiens, UniProt P00533, DEL747-752/P753S); details: read-out: % control
Procedure, shortened: as §1

KIT(V559D, V654A) = target: T3, KIT(V559D, V654A) (Homo sapiens, UniProt P10721, V559D/V654A); details: read-out: % control
T3 construct: purchased KinomeScan®
Procedure, shortened: as §1

LCK = LCK (Homo sapiens, UniProt P06239); details: read-out: % control
Procedure, shortened: as §1

[2] = target: T4, ABL1(M351T)-phosphorylated (Homo sapiens, UniProt P00519, M351T); details: read-out: % control
T4 construct: purchased KinomeScan®
Procedure, shortened: as §1

CSNK1D = CSNK1D (Homo sapiens, UniProt P48730); details: read-out: % control
Procedure, shortened: as §1

EPHA2 = EPHA2 (Homo sapiens, UniProt P29317); details: EPHA2, 1 μM; read-out: % control
Procedure, shortened: (§2)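 Percent-of-control values derive from RLU, calculated as (test − positive)/(negative − positive) × 100, where DMSO defines 100% and a positive control compound defines 0%. Each compound was tested at 1 μM in the 468-kinase panel; sub-35% readings indicate activity.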

ERN1 = ERN1 (Homo sapiens, UniProt O75460); details: ERN1, 1 μM; read-out: % control
Procedure, shortened: as §2

NEK2 = target: T5, NEK2 (Homo sapiens, UniProt P51955); details: NEK2, 1 μM; read-out: % control
T5 sequence (P51955 1-445): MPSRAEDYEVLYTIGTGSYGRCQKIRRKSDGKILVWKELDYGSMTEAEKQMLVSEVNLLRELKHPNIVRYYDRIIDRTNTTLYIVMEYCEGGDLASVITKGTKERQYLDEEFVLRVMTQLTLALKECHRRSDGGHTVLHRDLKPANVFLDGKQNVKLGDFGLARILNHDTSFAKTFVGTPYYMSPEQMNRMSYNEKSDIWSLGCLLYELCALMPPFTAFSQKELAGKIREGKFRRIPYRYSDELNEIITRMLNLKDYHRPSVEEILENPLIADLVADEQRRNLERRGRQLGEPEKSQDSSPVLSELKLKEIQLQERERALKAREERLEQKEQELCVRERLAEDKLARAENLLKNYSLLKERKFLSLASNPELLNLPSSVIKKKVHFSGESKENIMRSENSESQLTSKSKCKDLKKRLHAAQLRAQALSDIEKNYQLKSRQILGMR
Procedure, shortened: as §1

MKK7 = target: T6, MKK7 (Homo sapiens, UniProt O14733); details: MKK7, 1 μM; read-out: % control
T6 sequence (O14733 1-419): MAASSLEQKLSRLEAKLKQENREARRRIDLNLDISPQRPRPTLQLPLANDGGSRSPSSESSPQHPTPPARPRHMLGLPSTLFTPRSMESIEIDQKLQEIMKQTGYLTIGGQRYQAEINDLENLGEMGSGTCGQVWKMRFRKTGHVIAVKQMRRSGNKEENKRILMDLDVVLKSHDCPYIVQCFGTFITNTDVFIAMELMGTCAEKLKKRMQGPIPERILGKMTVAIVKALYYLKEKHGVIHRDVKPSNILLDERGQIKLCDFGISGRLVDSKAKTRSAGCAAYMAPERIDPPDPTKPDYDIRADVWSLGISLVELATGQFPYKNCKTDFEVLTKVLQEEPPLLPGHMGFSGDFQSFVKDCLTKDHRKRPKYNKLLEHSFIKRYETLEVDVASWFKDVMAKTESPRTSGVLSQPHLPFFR
Procedure, shortened: as §1

Sequence of ERN1 (O75460 19-977): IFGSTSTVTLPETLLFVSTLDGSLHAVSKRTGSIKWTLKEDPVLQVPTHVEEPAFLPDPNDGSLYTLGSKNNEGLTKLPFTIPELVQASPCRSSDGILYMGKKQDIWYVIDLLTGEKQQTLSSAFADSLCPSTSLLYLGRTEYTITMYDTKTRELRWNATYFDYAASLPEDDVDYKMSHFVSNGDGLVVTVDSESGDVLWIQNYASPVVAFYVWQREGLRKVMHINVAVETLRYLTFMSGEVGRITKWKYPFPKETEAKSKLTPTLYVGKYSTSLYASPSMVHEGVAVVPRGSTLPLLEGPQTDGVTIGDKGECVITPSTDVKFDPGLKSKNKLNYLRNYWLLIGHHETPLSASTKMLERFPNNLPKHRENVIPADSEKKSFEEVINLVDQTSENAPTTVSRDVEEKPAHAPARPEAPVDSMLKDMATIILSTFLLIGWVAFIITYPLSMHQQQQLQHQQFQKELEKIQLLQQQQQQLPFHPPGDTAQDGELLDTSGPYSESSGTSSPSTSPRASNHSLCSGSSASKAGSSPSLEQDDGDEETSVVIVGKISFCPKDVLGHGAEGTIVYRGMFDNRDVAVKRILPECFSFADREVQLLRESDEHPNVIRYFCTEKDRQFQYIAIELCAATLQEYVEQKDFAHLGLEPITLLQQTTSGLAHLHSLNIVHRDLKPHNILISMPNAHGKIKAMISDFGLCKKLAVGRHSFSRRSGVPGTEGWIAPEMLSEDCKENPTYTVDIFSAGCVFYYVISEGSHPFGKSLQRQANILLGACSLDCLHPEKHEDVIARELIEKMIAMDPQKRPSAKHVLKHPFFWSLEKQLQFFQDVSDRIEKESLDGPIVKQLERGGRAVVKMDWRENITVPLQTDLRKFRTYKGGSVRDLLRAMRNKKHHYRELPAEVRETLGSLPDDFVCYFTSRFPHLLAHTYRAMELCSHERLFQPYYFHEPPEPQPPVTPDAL
Sequence of EPHA2 (P29317 24-976): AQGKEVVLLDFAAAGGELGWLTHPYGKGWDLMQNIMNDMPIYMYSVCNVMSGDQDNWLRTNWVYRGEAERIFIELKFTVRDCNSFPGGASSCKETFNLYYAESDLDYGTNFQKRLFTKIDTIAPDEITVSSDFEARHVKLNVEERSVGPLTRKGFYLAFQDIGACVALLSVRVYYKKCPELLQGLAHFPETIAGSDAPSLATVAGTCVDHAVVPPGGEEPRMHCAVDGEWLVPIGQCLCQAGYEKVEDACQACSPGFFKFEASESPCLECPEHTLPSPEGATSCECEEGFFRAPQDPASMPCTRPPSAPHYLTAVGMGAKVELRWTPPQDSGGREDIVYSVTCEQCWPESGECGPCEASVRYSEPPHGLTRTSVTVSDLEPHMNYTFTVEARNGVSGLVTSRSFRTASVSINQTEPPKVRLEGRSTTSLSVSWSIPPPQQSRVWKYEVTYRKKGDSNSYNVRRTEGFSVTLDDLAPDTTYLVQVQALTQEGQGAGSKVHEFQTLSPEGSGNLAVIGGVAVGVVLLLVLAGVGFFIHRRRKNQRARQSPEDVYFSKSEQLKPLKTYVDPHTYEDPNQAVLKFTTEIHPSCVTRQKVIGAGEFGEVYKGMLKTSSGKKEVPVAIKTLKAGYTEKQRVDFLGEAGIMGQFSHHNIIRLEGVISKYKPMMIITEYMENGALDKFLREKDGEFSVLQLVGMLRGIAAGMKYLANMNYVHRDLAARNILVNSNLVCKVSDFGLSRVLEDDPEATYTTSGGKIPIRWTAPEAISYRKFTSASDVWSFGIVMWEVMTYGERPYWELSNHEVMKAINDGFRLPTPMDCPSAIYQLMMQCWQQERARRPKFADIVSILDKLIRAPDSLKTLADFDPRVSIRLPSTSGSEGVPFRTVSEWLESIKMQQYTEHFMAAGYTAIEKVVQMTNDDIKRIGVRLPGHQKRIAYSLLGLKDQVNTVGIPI
Sequence of CSNK1D (P48730 whole entry): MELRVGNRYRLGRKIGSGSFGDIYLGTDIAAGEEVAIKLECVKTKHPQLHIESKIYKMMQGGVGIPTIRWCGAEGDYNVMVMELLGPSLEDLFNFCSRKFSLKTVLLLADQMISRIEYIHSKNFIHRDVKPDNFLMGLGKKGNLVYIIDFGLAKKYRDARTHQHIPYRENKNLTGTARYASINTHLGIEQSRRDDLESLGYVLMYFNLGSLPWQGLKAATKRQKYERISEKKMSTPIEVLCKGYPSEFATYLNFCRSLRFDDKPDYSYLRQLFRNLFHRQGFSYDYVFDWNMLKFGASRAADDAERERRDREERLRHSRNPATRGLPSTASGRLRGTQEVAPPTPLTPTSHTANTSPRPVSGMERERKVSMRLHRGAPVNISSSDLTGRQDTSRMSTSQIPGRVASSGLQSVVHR
Sequence of EGFR(L747-S752del, P753S) (P00533 with tags, fused parts or gaps DEL747-752/P753S): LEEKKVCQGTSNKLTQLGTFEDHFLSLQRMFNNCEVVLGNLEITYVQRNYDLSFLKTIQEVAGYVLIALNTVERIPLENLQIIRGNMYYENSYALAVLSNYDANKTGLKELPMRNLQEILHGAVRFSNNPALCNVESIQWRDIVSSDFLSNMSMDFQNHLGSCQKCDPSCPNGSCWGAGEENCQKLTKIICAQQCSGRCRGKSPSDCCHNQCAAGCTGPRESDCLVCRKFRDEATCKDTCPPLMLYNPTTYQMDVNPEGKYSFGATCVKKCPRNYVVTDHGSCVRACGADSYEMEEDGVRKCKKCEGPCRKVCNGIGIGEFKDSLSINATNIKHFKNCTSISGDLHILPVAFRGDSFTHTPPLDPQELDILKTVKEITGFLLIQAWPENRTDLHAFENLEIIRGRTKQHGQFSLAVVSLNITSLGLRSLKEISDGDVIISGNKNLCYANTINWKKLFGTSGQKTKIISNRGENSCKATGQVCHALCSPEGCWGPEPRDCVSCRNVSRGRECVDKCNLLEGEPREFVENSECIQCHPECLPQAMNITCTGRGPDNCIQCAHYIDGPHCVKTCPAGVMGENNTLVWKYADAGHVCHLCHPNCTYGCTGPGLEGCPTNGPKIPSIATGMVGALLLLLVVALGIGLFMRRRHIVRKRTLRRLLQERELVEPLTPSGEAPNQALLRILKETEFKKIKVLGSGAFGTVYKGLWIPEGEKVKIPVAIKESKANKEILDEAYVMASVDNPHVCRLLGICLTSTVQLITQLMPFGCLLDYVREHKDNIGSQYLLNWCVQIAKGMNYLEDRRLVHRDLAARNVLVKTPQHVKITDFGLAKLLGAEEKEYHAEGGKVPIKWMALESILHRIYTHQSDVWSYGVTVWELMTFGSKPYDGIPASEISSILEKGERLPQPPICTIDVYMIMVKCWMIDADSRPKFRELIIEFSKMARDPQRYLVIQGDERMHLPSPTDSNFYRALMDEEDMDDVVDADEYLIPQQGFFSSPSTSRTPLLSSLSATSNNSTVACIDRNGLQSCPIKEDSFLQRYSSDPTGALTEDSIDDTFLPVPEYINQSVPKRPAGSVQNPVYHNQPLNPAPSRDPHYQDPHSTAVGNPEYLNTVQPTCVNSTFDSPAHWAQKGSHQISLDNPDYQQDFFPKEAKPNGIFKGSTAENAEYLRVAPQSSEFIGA
T3 sequence (P10721 26-976 V559D/V654A): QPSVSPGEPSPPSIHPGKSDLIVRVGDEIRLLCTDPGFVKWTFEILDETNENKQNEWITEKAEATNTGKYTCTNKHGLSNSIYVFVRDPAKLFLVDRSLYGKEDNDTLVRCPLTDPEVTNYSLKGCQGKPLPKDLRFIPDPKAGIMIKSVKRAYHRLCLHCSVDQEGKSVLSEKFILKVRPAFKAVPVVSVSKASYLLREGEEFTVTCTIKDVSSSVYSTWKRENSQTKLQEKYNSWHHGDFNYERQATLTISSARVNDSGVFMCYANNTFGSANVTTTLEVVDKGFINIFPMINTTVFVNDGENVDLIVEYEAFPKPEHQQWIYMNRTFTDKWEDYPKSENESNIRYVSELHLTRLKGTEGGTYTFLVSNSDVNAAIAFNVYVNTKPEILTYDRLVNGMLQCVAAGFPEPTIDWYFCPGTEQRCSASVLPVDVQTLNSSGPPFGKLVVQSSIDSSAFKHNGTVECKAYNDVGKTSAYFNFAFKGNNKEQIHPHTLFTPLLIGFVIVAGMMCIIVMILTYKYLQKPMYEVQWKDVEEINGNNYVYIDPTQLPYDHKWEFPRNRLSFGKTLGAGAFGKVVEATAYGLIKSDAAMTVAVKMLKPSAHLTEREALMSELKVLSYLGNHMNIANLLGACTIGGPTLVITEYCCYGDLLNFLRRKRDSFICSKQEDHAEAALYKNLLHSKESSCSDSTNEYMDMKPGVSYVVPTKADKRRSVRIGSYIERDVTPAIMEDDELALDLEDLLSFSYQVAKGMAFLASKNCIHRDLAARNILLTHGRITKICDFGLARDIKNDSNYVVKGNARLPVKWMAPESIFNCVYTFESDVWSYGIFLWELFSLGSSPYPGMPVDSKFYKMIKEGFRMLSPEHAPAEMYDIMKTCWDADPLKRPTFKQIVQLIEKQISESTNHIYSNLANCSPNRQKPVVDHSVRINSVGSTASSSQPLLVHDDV
Sequence of LCK (P06239 whole entry): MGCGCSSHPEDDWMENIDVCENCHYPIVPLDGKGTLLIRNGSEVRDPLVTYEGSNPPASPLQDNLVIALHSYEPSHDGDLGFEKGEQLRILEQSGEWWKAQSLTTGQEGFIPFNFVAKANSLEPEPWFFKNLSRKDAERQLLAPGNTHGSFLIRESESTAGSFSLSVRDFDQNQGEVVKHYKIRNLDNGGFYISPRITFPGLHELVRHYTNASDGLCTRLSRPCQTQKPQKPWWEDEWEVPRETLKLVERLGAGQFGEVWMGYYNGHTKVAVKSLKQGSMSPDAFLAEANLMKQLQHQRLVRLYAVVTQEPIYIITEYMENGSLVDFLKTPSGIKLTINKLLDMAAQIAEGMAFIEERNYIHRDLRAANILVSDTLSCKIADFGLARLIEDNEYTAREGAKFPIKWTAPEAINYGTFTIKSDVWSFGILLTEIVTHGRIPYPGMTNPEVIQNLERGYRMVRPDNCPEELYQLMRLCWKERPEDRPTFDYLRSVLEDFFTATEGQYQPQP

SMILES	remaining binding at 1 µM (MEK3) [%]	remaining binding at 1 µM (BRSK1) [%]	remaining binding at 1 µM [1] [%]	remaining binding at 1 µM (KIT(V559D, V654A)) [%]	remaining binding at 1 µM (LCK) [%]	remaining binding at 1 µM [2] [%]	remaining binding at 1 µM (CSNK1D) [%]	remaining binding at 1 µM (EPHA2) [%]	remaining binding at 1 µM (ERN1) [%]	remaining binding at 1 µM (NEK2) [%]	remaining binding at 1 µM (MKK7) [%]
CNc1c(-c2cnn([C@H]3CCN(C(C)=O)C[C@@H]3F)c2)cnc2[nH]cc(Cl)c12 [Compound 77, 1-((3S,4S)-4-(4-(3-chloro-4-(methylamino)-1H-pyrrolo[2,3-b]pyridin-5-yl)-1H-pyrazol-1-yl)-3-fluoropiperidin-1-yl)ethan-1-one]	36	100	92	53	96	75	84	96	56	100	67
O=C(c1ccc(-c2cnc3[nH]cc(Cl)c3c2NC2CCCC2)cc1)N1CCC(N2CCOCC2)CC1 [Compound 101, (4-(3-chloro-4-(cyclopentylamino)-1H-pyrrolo[2,3-b]pyridin-5-yl)phenyl)(4-morpholinopiperidin-1-yl)methanone]	33	100	100	100	100	93	92	30	86	100	100
CNc1c(-c2ccc(C(=O)N3CCC(N4CCOCC4)CC3)cc2)cnc2[nH]cc(Cl)c12 [Compound 96, (4-(3-chloro-4-(methylamino)-1H-pyrrolo[2,3-b]pyridin-5-yl)phenyl)(4-morpholinopiperidin-1-yl)methanone]	4.2	100	77	94	100	71	90	100	73	100	79
